# What was measured:
# [1] = system: Tte class-I preQ1 riboswitch aptamer, U22Ap variant (RNA, riboswitch, 2-aminopurine at 22 (replacing U22)) CUGGGUCGCAGUAACCCCAGUUAACAAAACAAG; assay: 2-aminopurine fluorescence titration; conditions: 100 mM KCl, 2 mM MgCl2; 50 mM MOPS, pH 7.5, 293 K; 0.5 µM RNA; apparent
# [2] = system: Spn class-II preQ1 riboswitch aptamer, A11Ap variant (RNA, riboswitch, 2-aminopurine at 11 (replacing A11)) CUUGGUGCUUAGCUUCUUUCACCAAGCAUAUUACACGCGGAUAACCGCCAAAGGA; assay: 2-aminopurine fluorescence titration; conditions: 100 mM KCl, 2 mM MgCl2; 50 mM MOPS, pH 7.5, 293 K; 0.5 µM RNA; apparent
Structure (SMILES),KD [1] [nM],KD [2] [nM]
COCCOCCOCCNCc1c[nH]c2nc(N)[nH]c(=O)c12,922,4580
NCCCCNCc1c[nH]c2nc(N)[nH]c(=O)c12,41,148
NCCCNCc1c[nH]c2nc(N)[nH]c(=O)c12,32,97
[N-]=[N+]=NCCCCNCc1c[nH]c2nc(N)[nH]c(=O)c12,88,432

# More lines, now with the values ahead:
KD [1] [nM],KD [2] [nM],Structure (SMILES)
71,2830,NCCCc1c[nH]c2nc(N)[nH]c(=O)c12
51,430,NCc1c[nH]c2nc(N)[nH]c(=O)c12
590,1030,Nc1nc2[nH]cc(CNCCCCCNCc3c[nH]c4nc(N)[nH]c(=O)c34)c2c(=O)[nH]1
30,254,[N-]=[N+]=NCCCNCc1c[nH]c2nc(N)[nH]c(=O)c12
167,203,[N-]=[N+]=NCCOCCNCc1c[nH]c2nc(N)[nH]c(=O)c12
